The text below walks through data of patent publication US12234288B2, “Immunogenic arginase 2 polypeptides” (IO Biotech ApS, priority 2018, dated 2025).

This assay concerns ARG2-specific T cells. Nature of the assay: ARG2-specific CD4+ T cell culture: IFNy ELISPOT and intracellular cytokine staining toward peptide or target cells. The assay is classed as cell-based, human. The conditions noted are these: for recognition of peptide-pulsed cells by ARG2-specific T cells: IFNy ELISPOT, FIG. 17A; for specificity of the ARG2-specific T cell culture to peptide: intracellular cytokine staining for TNFα and IFNy and IFNy ELISPOT, FIG. 16A/B. The method, then: ELISPOT assays with ARG2-specific T cells (effector cells) and various immune or cancer cells as target cells (target cells) were setup by placing 1-5×10^4 effector cells (as indicated) and 1-2.5×10^4 target cells (as indicated) in the bottom of an ELISPOT well. Peptide pulsing of target cells were performed by incubation of cells with 20 μM peptide for lhr followed by two washes to remove unbound peptide. These cells served as positive control. Effector cells plated without target cells served as negative control. All conditions were setup in triplicates or quadruplicates.
Intracellular staining of cell cultures was performed on PBMCs after one week of ARG2-derived peptide stimulation in vitro. For the assay, 9×10^5 PBMCs were re-stimulated with ARG2-derived peptides (or incubated with no peptide as a control) for 5 hours in the presence of BD GolgiPlug™ (added after the first hour of peptide stimulation). Stimulated cells were stained with fluorescently labeled antibodies for surface markers (CD3, CD4, CD8) and thereafter permeabilized by using Fixation/Permeabilization and Permeabilization Buffer (eBioscience, cat. 00-{5123-43), according to manufacturer's instructions. Permeabilized cells were then stained with fluorochrome-labeled antibodies for IFNγ and TNFα. Flow cytometry analysis was performed on a FACSCanto™ II (BD Biosciences). Antibodies used: IFNγ-APC, TNFα-BV421, CD4-PerCP, CD8-FITC, CD3-APC-H7, CD4-FITC, CD8-PerCP, and dead cells stain-FVS510 (all from BD Biosciences) according to manufacturer's instructions. For intracellular cytokine staining to detect cytokine production of ARG2-specific T cells in response to target cells, 5×10^5 ARG2 specific cells were incubated with 2.5×10^5 target cells for 5 hours with GolgiPlug™ added after the first hour.
The ARG2-specific T cell culture was established by initial stimulation of PMBCs from a prostate cancer patient with irradiated ARG2-1 loaded autologous mature dendritic cells. The following day IL-12 (20 U/ml) and IL-7 (40 U/ml) was added. PBMCs were restimulated every 8 days with ARG2-1 peptide loaded autologous DCs followed by addition of IL-2 (120 U/ml) the next day. ARG2-specific T cells were enriched using IFNy enrichment kit (MiltenyiBiotec) after 4 stimulations. Cells were expanded and ARG2-specific T cells were further enriched using CD4+ enrichment kit (MiltenyiBiotec).
For mRNA, DCs or cancer cells were transfected with ARG1-DC-LAMP mRNA, ARG2-DC-LAMP mRNA or control mRNA encoding eGFP using electroporation parameters as previously described. Briefly, cells were washed twice in Opti-MEM medium (Thermo Scientific) and adjusted to a final cell concentration of 9-12×10^6 cells/ml. 350 μl cell suspension was preincubated on ice for 5 minutes before addition of 10 μg mRNA. The cell suspension was then quickly transferred into a 2-mm (cancer cells) or 4-mm (DCs) gap electroporation cuvette and electroporated (ref: OM paper). After electroporation, cells were quickly transferred to a dish with pre-warmed medium and incubated in humidified atmosphere with 5% CO2 before use for different experimental analysis. mRNA transfected cells were rested for 1 hr before they were setup in ELISPOT assay or rested overnight before set up in intracellular cytokine staining assay. Electroporation efficiency was determined 24 hours post transfection by FACS analysis of the GFP transfected cells. […]

Consider “LQTRVHSILKKSVHSVAVIG (listed as Homo sapiens) [ARG2_1, polypeptide derived from human Arginase2, aa11-30]”, for which the “specificity of the ARG2-specific T cell culture to peptide” value was “highly specific”. Also, the “recognition of peptide-pulsed cells by ARG2-specific T cells” value (“recognition of peptide-pulsed cells” below) (MONO-MAC-1 cells) is on record as “effectively recognized”. In addition, the “recognition of peptide-pulsed cells” value (OCI-AML2 cells) is listed as “effectively recognized”. The “recognition of peptide-pulsed cells” value (THP-1 cells) is recorded as “effectively recognized”.

“SLRGSLSRLLQTRVHSILKKSVHSVAVIGAPFS (listed as Homo sapiens) [A2L2, long ARG2 peptide, aa2-34, 33-mer]”: the “specificity of the ARG2-specific T cell culture to peptide” value is recorded as “highly specific”.
